US20250034264A1, “REGULATING T CELL IMMUNE RESPONSE THROUGH IGF-I RECEPTOR (IGF-1R)” (The Regents of the University of Michigan, priority 2021, published 2025)

Assays:
[1] = system: GD-OF; experiment: icIL-1RA and sIL-1RA protein (ELISA); format: cell-based, human
Method: FIGS. 11A-11F are graphs showing teprotumumab attenuates bTSH induced IL-10 while enhancing icIL-1RA and sIL-1RA expression in fibrocytes and GD-OF. Fibrocyte cultures were treated with teprotumumab (50 μg/ml), rhSlit2 (50 ng/ml) or human Isotype IgG for 7-9 d, with bTSH (5 mIU/mL) for final 6 h. RNA was extracted and reverse transcribed. Isolated cDNA was subjected to quantitative real-time PCR for IL-10 (FIGS. 11A and 11B), icIL-1RA (FIGS. 11C and 11D). Media and cellular proteins were collected and subjected to specific ELISAs for icIL-1RA and sIL-1RA (FIGS. 11E, 11F, 11G, and 11H). PCR values were normalized to their respective GAPDH levels. icIL-1RA and sIL-1RA protein levels were normalized to cellular protein levels. Data are expressed as the mean±SD of three independent determinations. Experiments were repeated three times. **, p<0.01; ***. P<0.001.

[2] = system: fibrocytes; experiment: RNA Pol II ChIP transcription assay; format: cell-based, human; settings: 50 μg/mL
Method: RNA Pol II ChIP transcription assay Transcriptional assays were performed using the method of Wells and Farnham (Methods (San Diego, Calif.) 26, 48-56(2002). Confluent cultures were treated with human Isotype IgG or teprotumumab (50 μg/mL) in DMEM with 10% FBS for 3 d, rinsed, and shifted to DMEM with 1% FBS for 16 h with the respective additives, and then treated without or with bTSH (5 mU/mL) for 2 h. Cross-linked protein/DNA and isolated chromatin fragments were immunoprecipitated with target antibodies: anti-HLA-DPB1 [EPR11226] (cat. #abl57210), anti-CD80 [EPR22183] (cat. #ab225674), anti-CD86 [EPR21962] (cat. #ab239075), and anti-PD-L1 [EPR19759](cat. #ab213524),) from Abcam (Cambridge, MA) using the Pierce™ Agarose Chip Kit (Thermo Scientific, cat #26156). Eluted fractions were reverse cross-linked and isolated DNA subjected to RT-PCR using EpiTect ChIP qPCR Primer Assay for human HLA-DRA (cat. #GPH1011269(-)02A, HLA-DRB1 (cat. #GPH1024837(-)02A), CD80 (cat. #GPH1023189(-)02A), CD86 (cat. #GPH1009502(-)02A), PD-L1 (cat. #GPH1012902(-)02A, Qiagen. GAPDH served as the housekeeping gene and values were generated according to the protocol provided by the supplier.

[3] = system: circulating CD34+CXCR4+ fibrocytes; experiment: Phase 2 TAO trial: MHC II and B7 proteins in circulating fibrocytes (flow cytometry); format: in vivo, human; settings: TAO patients, 20 mg/Kg, 24-week treatment
Method: Studies of circulating CD34^+ fibrocytes and T cells PBMCs from patients with active, moderate to severe TAO enrolled in a phase 2 trial for teprotumumab were cryopreserved immediately after collection. Venous blood sampling occurred at baseline and at week 24, following 8 infusions at 3 weekly intervals. The post-treatment sample was obtained 3 weeks after the final infusion of active drug or placebo. Samples were thawed and incubated with 10% knockout serum replacement medium for 1h and stained. Rinsed samples were subjected to FACS analysis with a Calibur flow cytometer (BD). Viable cells were gated on the basis of forward light scatter. All samples were analyzed using quadrant settings based on negative staining with isotype control antibodies. Mean fluorescent intensity (MFI) was calculated as the ratio of mean sample to isotype control fluorescence. Data were analyzed with FCS Express software (De Novo Software, Ontario, CA).

[4] = system: GD-OF; experiment: Slit2 and ROBO1 mRNA and Slit2 protein; format: cell-based, human; settings: 50 μg/ml, 3 d
Method: FIGS. 14A-14B are graphs showing teprotumumab induces Slit2 and roundabout 1 (ROBO1) mRNA and Slit2 protein in GD-OF. Cultures were treated with either isotype control IgG or teprotumumab (50 μg/ml) for 3 d. Culture media were collected and subjected to Slit2-specific ELISA (FIG. 14A). Levels of Slit2 were normalized to respective cell layer protein content. Cellular RNA was harvested from rinsed cell layers and mRNA reverse transcribed, and cDNA subjected to quantitative real-time PCR for Slit2 and ROBO1 (FIG. 14B). Values were normalized to their respective GAPDH levels. * *, p<0.01, * **, p<0.001.
(§1) Real-time PCR Confluent fibrocyte and GD-OF cultures were incubated with bTSH (5 mIU/mL), teprotumumab (50 μg/mL) or linsitinib (1 μM) for the time intervals indicated, washed with PBS and RNA was extracted with the Aurum Total RNA Mini Kit (cat. #732-6820, Bio-Rad, Hercules, CA). Cellular RNA (2 μg) was reverse transcribed using QuantiTect Reverse Transcription kit (cat. #205314, Qiagen (Germantown, MD) and real-time PCR was performed using an Applied Biosystems instrument with QuantiTect SYBR Green PCR kit (cat. no. 204143; Qiagen, Frederick, MD). Primer sequences were as follows.

[5] = system: GD-OF; experiment: HAS1 and HAS2 mRNA, real-time PCR; format: cell-based, human; settings: teprotumumab 50 μg/ml or linsitinib 1 μM, 7-9 d
Method: (§2) FIGS. 13A-13B are graphs showing the effect of teprotumumab on bTSH induced hyaluronan (HA) production in GD-OF (FIG. 13A) and fibrocytes (FIG. 13B). GD-OF were treated with or without teprotumumab (50 μg/ml) or human Isotype IgG (5 μg/ml) for 7-9 d and stimulated with bTSH (5 mIU/mL) for graded intervals indicated along the abscissa for 0 to 96h. Media were collected and subjected to HA ELISA. Values were normalized to respective cell layer protein levels and expressed as the mean±SD of three independent determinations. Experiments were repeated three times. FIGS. 13C-13F are graphs showing the divergent pattern of hyaluronan synthase (HAS) isoenzyme induction by bTSH in fibrocytes versus GD-OF and effects of teprotumumab (FIGS. 13C and 13D) and linsitinib (FIGS. 13E and 13F). Confluent monolayers of GD-OF and fibrocytes remained untreated or received teprotumumab (50 μg/ml) or linsitinib (1 μM) and human Isotype IgG for 7-9 d. Some cultures were treated with bTSH (5 mIU/mL) for 6h. Cellular RNA was harvested mRNA was reverse transcribed, and cDNA subjected to quantitative real-time PCR for HAS1 and HAS2. Values were normalized to their respective GAPDH levels and are expressed as the mean±SD of three independent determinations. Experiments were repeated three times. *, P<0.05; **, p<0.01; ***. P<0.001.
as §1

[6] = system: fibrocytes; experiment: HAS1 and HAS2 mRNA, real-time PCR; format: cell-based, human; settings: teprotumumab 50 μg/ml or linsitinib 1 μM, 7-9 d
Method: as §2, §1

teprotumumab
icIL-1RA protein levels [1]: upregulated
sIL-1RA protein levels [1]: upregulated
basal and bTSH-induced transcription of MHC II, CD80, CD86, PD-L1 genes [2]: attenuated
reduction of CD80 expression level compared to baseline [3]: 54%
reduction of CD86 expression level compared to baseline [3]: 47%
reduction of MHC-II expression level compared to baseline [3]: 40%
reduction of PD-L1 expression level compared to baseline [3]: 47%
Slit2 protein synthesis ([4]; ELISA): increased
ROBO1 mRNA expression ([4]; three strains of GD-OF): induced
Slit2 mRNA expression ([4]; three strains of GD-OF): induced
HAS2 expression, single agent or in combination with bTSH [5]: induced
basal and bTSH-provoked expression of HAS1 [5]: inhibited
HAS2 expression, single agent or in combination with bTSH [6]: induced
basal and bTSH-provoked expression of HAS1 [6]: inhibited
